How the values were obtained:
INS-1E cells [1] = experiment: Cellular ATP levels (CellTiter-Glo) in cytokine-treated INS-1E cells; suppression of cytokine-induced beta-cell apoptosis; format: cell-based, rat
Method: The compounds were analyzed for activity utilizing methods described in Chou et al. (ACS Chem. Biol. 2010 Aug. 20; 5(8):729-34).
INS-1E cells were seeded at 10,000 cells per well using a Multidrop Combi (Thermo Labsystems) in white optical 384-well plates (Corning Life Sciences). After overnight incubation, medium was removed and 50 μL of RPMI containing 1% FBS and a combination of cytokines (10 ng mL-^1 IL-1β, 50 ng mL^−1 IFN-γ, 25 ngmL^−1 TNF-α) was added to every well. Using libraries of compounds dissolved in DMSO and a CyBi-Well pin-transfer robot (CyBio Corp.), 0.1 μL of each compound was added. After 48 h, medium was removed and 20 μL of CellTiter-Glo reagent was added. Luminescence was measured after 10 min of incubation using an EnVision plate reader (PerkinElmer).
Instrument output files were processed using Pipeline Pilot (Accelrys) and input to MATLAB (The MathWorks) for data normalization. Compound performance scores relative to a distribution of mock-treated (DMSO) wells were calculated using a revised version of the scoring system underlying ChemBank. (Seiler et al., Nucleic Acids Res. 36, D351-359, 2008). The role of replicate treatments was further developed as follows: first, mock-treatment distributions were modeled using all mock-treated wells measured on a single day, regardless of their nominal replicate; second, per-compound scores weighted each in-plate background-subtracted measurement by the uncertainty in that measurement, using the method of maximum likelihood. The uncertainty in a single background-subtracted measurement was estimated using the number of mock-treated wells on the plate and, as a measure of the assay noise, the standard deviation of the per-day mock-treatment distribution. The signal, a weighted average of differences, was scaled by the noise, the standard deviation of the mock treatment distribution.
INS-1E cells were seeded at 10,000 cells/well using a Multidrop Combi (Thermo Labsystems) in white optical 384-well plates (Corning Life Sciences). After overnight incubation, medium was removed and 50 μL RPMI containing the treated compound, 1% FBS and a combination of cytokines (10 ng/mL IL-1β, 50 ng/mL IFN-γ, 25 ng/mL TNF-α) was added to every well. After incubation for 48 hr, medium was removed and 20 μL CellTiter-Glo reagent was added. Luminescence was measured after 10-min incubation using an EnVision plate reader (PerkinElmer).

INS-1E cells [2] = experiment: Caspase-3 activity assay (Caspase-Glo 3/7) in cytokine-treated INS-1E cells; format: cell-based, rat; settings: cytokines, 48 h, Caspase-Glo 3/7
Method: INS-1E cells were seeded at 5,000 cells per well in white optical 384-well plates and treated as described for highthroughput screening. After treatment with cytokines and compounds for 48 h, medium was removed and 20 μL Caspase-Glo 3/7 reagent was added. Luminescence was measured after 2 h of incubation using an EnVision plate reader.

[3] = Rattus norvegicus, INS-1E, assay not named, read-out: EC50
[4] = Rattus norvegicus, INS-1E cells, cytokines IL-1β, IFN-γ, TNF-α, 48 h, CellTiter-Glo, read-out: CTG EC50 in HTS
[5] = INS-1E cells, cytokines IL-1β, IFN-γ, TNF-α, 48 h, CellTiter-Glo, read-out: CTG EC50 in HTS

| EC50 (INS-1E cells [2]; Rattus norvegicus) | EC50 (INS-1E cells [2]) | Compound | EC50 (INS-1E cells [1]; [3]) | IC50 (INS-1E cells [1]; Rattus norvegicus, INS-1E, read-out: IC50, inhibition of cytokine-induced beta cell apoptosis) | EC50 (INS-1E cells [1]; [4]) | EC50 (INS-1E cells [1]; [5]) |
| --- | --- | --- | --- | --- | --- | --- |
| – | > 25 µM | C[C@@H]1CN([C@@H](C)CO)C(=O)c2cccc(NC(=O)Nc3cccc4ccccc34)c2O[C@H]1CN(C)S(=O)(=O)c1ccc(OC(F)(F)F)cc1 [Compound 16A] | – | – | – | > 10 µM |
| – | > 25 µM | COc1ccccc1S(=O)(=O)N(C)C[C@@H]1Oc2c(NC(=O)Nc3cccc4ccccc34)cccc2C(=O)N([C@@H](C)CO)C[C@H]1C [Compound 17A] | – | – | – | > 25 µM |
| – | > 25 µM | COc1cccc(S(=O)(=O)N(C)C[C@@H]2Oc3c(NC(=O)Nc4cccc5ccccc45)cccc3C(=O)N([C@@H](C)CO)C[C@H]2C)c1 [Compound 18A] | – | – | – | > 25 µM |
| – | > 25 µM | COc1ccc(S(=O)(=O)N(C)C[C@@H]2Oc3c(NC(=O)Nc4cccc5ccccc45)cccc3C(=O)N([C@@H](C)CO)C[C@H]2C)c(OC)c1 [Compound 19A] | – | – | – | > 25 µM |
| > 0.1 µM | – | COc1ccc(S(=O)(=O)N(C)C[C@@H]2Oc3c(NC(=O)Nc4cccc5ccccc45)cccc3C(=O)N([C@@H](C)CO)C[C@H]2C)cc1C [Compound 20A, N-(((2R,3R)-5-((S)-1-hydroxypropan-2-yl)-3-methyl-10-(3-(naphthalen-1-yl)ureido)-6-oxo-3,4,5,6-tetrahydro-2H-benzo[b][1,5]oxazocin-2-yl)methyl)-4-methoxy-N,3-dimethylbenzenesulfonamide] | 0.314 µM | – | > 0.1 µM | – |
| – | > 25 µM | C[C@@H]1CN([C@@H](C)CO)C(=O)c2cccc(NC(=O)Nc3cccc4ccccc34)c2O[C@H]1CN(C)S(=O)(=O)c1ccc2c(c1)OCO2 [Compound 23A] | – | – | – | > 25 µM |
| – | > 25 µM | C[C@@H]1CN([C@@H](C)CO)C(=O)c2cccc(NC(=O)Nc3cccc4ccccc34)c2O[C@H]1CN(C)S(=O)(=O)c1ccc2c(c1)OCC2 [Compound 24A] | – | – | – | > 25 µM |
| – | > 25 µM | C[C@@H]1CN([C@@H](C)CO)C(=O)c2cccc(NC(=O)Nc3cccc4ccccc34)c2O[C@H]1CN(C)S(=O)(=O)c1ccc2c(c1)OCCCO2 [Compound 25A] | – | – | – | > 25 µM |
| – | > 25 µM | C[C@@H]1CN([C@@H](C)CO)C(=O)c2cccc(NC(=O)Nc3cccc4ccccc34)c2O[C@H]1CN(C)S(=O)(=O)c1ccc2c(n1)N(C)CCO2 [Compound 26A] | – | – | – | > 25 µM |
| > 25 µM | – | C[C@@H]1CN([C@@H](C)CO)C(=O)c2cccc(NC(=O)Nc3ccc(F)cc3)c2O[C@H]1CN(C)S(=O)(=O)c1ccc(Cl)cc1 [Compound 30A, 4-Chloro-N-(((2R,3R)-10-(3-(4-fluorophenyl)ureido)-5-((S)-1-hydroxypropan-2-yl)-3-methyl-6-oxo-3,4,5,6-tetrahydro-2H-benzo[b][1,5]oxazocin-2-yl)methyl)-N-methylbenzenesulfonamide] | – | – | > 25 µM | – |
| – | > 20 µM | C[C@@H]1CN([C@@H](C)CO)C(=O)c2cccc(NC(=O)Nc3ccccc3)c2O[C@H]1CN(C)S(=O)(=O)c1ccc(Cl)cc1 [Compound 31A] | – | – | – | > 20 µM |
| > 25 µM | – | COc1ccc(S(=O)(=O)N(C)C[C@@H]2Oc3c(NC(=O)Nc4cccc(Cl)c4Cl)cccc3C(=O)N([C@@H](C)CO)C[C@H]2C)cc1 [Compound 32A, N-(((2R,3R)-10-(3-(2,3-Dichlorophenyl)ureido)-5-((S)-1-hydroxypropan-2-yl)-3-methyl-6-oxo-3,4,5,6-tetrahydro-2H-benzo[b][1,5]oxazocin-2-yl)methyl)-4-methoxy-N-methylbenzenesulfonamide] | – | – | > 20 µM | – |
| – | > 25 µM | COc1ccc(S(=O)(=O)N(C)C[C@@H]2Oc3c(NC(=O)Nc4ccccc4)cccc3C(=O)N([C@@H](C)CO)C[C@H]2C)cc1 [Compound 33A] | – | – | – | > 25 µM |
| – | > 25 µM | COc1ccc(S(=O)(=O)N(C)C[C@@H]2Oc3c(NC(=O)c4cc(C)nn4C)cccc3C(=O)N([C@@H](C)CO)C[C@H]2C)cc1 [Compound 34A] | – | – | – | > 25 µM |

Further lines, the compound ahead of its results:

| Compound | EC50 (INS-1E cells [2]; Rattus norvegicus) | EC50 (INS-1E cells [2]) | EC50 (INS-1E cells [1]; [3]) | IC50 (INS-1E cells [1]; Rattus norvegicus, INS-1E, read-out: IC50, inhibition of cytokine-induced beta cell apoptosis) | EC50 (INS-1E cells [1]; [4]) | EC50 (INS-1E cells [1]; [5]) |
| --- | --- | --- | --- | --- | --- | --- |
| COc1ccc(S(=O)(=O)N(C)C[C@@H]2Oc3c(NC(=O)Nc4cccc5ccccc45)cccc3C(=O)N([C@@H](C)CO)C[C@H]2C)cc1 [Compound 1A, N-(((2R,3R)-5-((S)-1-hydroxypropan-2-yl)-3-methyl-10-(3-(naphthalen-1-yl)ureido)-6-oxo-3,4,5,6-tetrahydro-2H-benzo[b][1,5]oxazocin-2-yl)methyl)-4-methoxy-N-methylbenzenesulfonamide] | > 0.1 µM | – | 0.423 µM | 4.9 µM | > 0.1 µM | – |
| Cc1ccc(S(=O)(=O)N(C)C[C@@H]2Oc3c(NC(=O)Nc4cccc5ccccc45)cccc3C(=O)N([C@@H](C)CO)C[C@H]2C)cc1 [Compound 2A, N-(((2R,3R)-5-((S)-1-hydroxypropan-2-yl)-3-methyl-10-(3-(naphthalen-1-yl)ureido)-6-oxo-3,4,5,6-tetrahydro-2H-benzo[b][1,5]oxazocin-2-yl)methyl)-N,4-dimethylbenzenesulfonamide] | > 25 µM | – | 5.5 µM | – | > 10 µM | – |
| Cc1ccc(S(=O)(=O)N(C)C[C@@H]2Oc3c(NC(=O)Nc4cccc5c4ccn5C)cccc3C(=O)N([C@@H](C)CO)C[C@H]2C)cc1 [Compound 3A, N-(((2R,3R)-5-((S)-1-hydroxypropan-2-yl)-3-methyl-10-(3-(1-methyl-1H-indol-4-yl)ureido)-6-oxo-3,4,5,6-tetrahydro-2H-benzo[b][1,5]oxazocin-2-yl)methyl)-N,4-dimethylbenzenesulfonamide] | > 10 µM | – | – | – | > 25 µM | – |
| C[C@@H]1CN([C@@H](C)CO)C(=O)c2cccc(NC(=O)Nc3cccc4ccccc34)c2O[C@H]1CN(C)S(=O)(=O)c1ccccc1 [Compound 4A] | – | > 25 µM | – | – | – | > 25 µM |
| C[C@@H]1CN([C@@H](C)CO)C(=O)c2cccc(NC(=O)Nc3cccc4ccccc34)c2O[C@H]1CN(C)S(=O)(=O)c1ccc(Cl)cc1 [Compound 5A] | – | > 25 µM | – | – | – | > 0.1 µM |
| C[C@@H]1CN([C@@H](C)CO)C(=O)c2cccc(NC(=O)Nc3cccc4ccccc34)c2O[C@H]1CN(C)S(=O)(=O)c1ccc(F)cc1 [Compound 6A] | – | > 25 µM | – | – | – | > 25 µM |
| C[C@@H]1CN([C@@H](C)CO)C(=O)c2cccc(NC(=O)Nc3cccc4ccccc34)c2O[C@H]1CN(C)S(=O)(=O)c1cccc(F)c1 [Compound 7A] | – | > 25 µM | – | – | – | > 25 µM |
| C[C@@H]1CN([C@@H](C)CO)C(=O)c2cccc(NC(=O)Nc3cccc4ccccc34)c2O[C@H]1CN(C)S(=O)(=O)c1ccccc1F [Compound 8A] | – | > 25 µM | – | – | – | > 25 µM |
| C[C@@H]1CN([C@@H](C)CO)C(=O)c2cccc(NC(=O)Nc3cccc4ccccc34)c2O[C@H]1CN(C)CS(=O)(=O)c1ccc(F)cc1 [Compound 9A] | – | > 25 µM | – | – | – | > 25 µM |
| COc1ccc(S(=O)(=O)N(C)C[C@@H]2Oc3c(NC(=O)Nc4cccc5ccccc45)cccc3C(=O)N([C@@H](C)CO)C[C@H]2C)cc1F [Compound 10A] | – | > 25 µM | – | – | – | > 20 µM |
| COc1ccc(S(=O)(=O)N(C)C[C@@H]2Oc3c(NC(=O)Nc4cccc5ccccc45)cccc3C(=O)N([C@@H](C)CO)C[C@H]2C)cc1Cl [Compound 11A] | – | > 25 µM | – | – | – | > 10 µM |
| C[C@@H]1CN([C@@H](C)CO)C(=O)c2cccc(NC(=O)Nc3cccc4ccccc34)c2O[C@H]1CN(C)S(=O)(=O)c1ccc(Oc2ccccc2)cc1 [Compound 12A] | – | > 25 µM | – | – | – | > 25 µM |
| C[C@@H]1CN([C@@H](C)CO)C(=O)c2cccc(NC(=O)Nc3cccc4ccccc34)c2O[C@H]1CN(C)S(=O)(=O)c1ccc(-c2ccccc2)cc1 [Compound 13A] | – | > 25 µM | – | – | – | > 25 µM |
| C[C@@H]1CN([C@@H](C)CO)C(=O)c2cccc(NC(=O)Nc3cccc4ccccc34)c2O[C@H]1CN(C)S(=O)(=O)c1ccc2c(c1)CCC(=O)N2 [Compound 14A] | – | > 25 µM | – | – | – | > 25 µM |
| C[C@@H]1CN([C@@H](C)CO)C(=O)c2cccc(NC(=O)Nc3cccc4ccccc34)c2O[C@H]1CN(C)S(=O)(=O)c1ccc2c(c1)oc(=O)n2C [Compound 15A] | – | > 25 µM | – | – | – | > 25 µM |
| Cc1ccc(S(=O)(=O)N(C)C[C@@H]2Oc3c(NC(=O)Nc4ccc(F)cc4)cccc3C(=O)N([C@H](C)CO)C[C@H]2C)cc1 [Compound 37B] | – | – | – | – | – | > 25 µM |

— patent publication US8741905B2, “Compounds and methods for treating autoimmune diseases” (The Broad Institute, Inc., priority 2010, dated 2014)
